Experiments:
[1] = test system: DU-145 (hormone-refractory prostate cancer cells); test: Resazurin antiproliferative assay, DU-145 cells; assay type: cell-based, human; details: towards HFF-1 cell lines
[2] = test system: MDA-MB-231 (triple-negative breast cancer cells); test: Resazurin antiproliferative assay, MDA-MB-231 cells; assay type: cell-based, human; details: towards HFF-1 cell lines

Compound: COc1cc(OC)cc([C@H]2C[C@@H](C)OC(=O)c3cc4ccccn4c32)c1 (racemic) [cis-4f]
- Selectivity index (SI = CC50/IC50) HFF-1/DU-145 [1]: > 2
- Selectivity index (SI = CC50/IC50) HFF-1/MDA-MB-231 [2]: > 5

Compound: C[C@@H]1C[C@H](c2ccc(Br)cc2)c2c(cc3ccccn23)C(=O)O1 (racemic) [cis-4d]
- Selectivity index (SI = CC50/IC50) HFF-1/DU-145 [1]: 0.03
- Selectivity index (SI = CC50/IC50) HFF-1/MDA-MB-231 [2]: 0.06

Source: paper PMC10321224 (RSC Advances, 2023)
